{"source": "patent US11466025B2", "about": "“Thienopyridine derivatives containing unsaturated aliphatic olefinic bond, preparation method and use thereof” (Tianjin Institute of Pharmaceutical Research Co., Ltd., priority 2017, dated 2022)", "key": {"[1]": {"test_system": "platelet aggregation induced by ADP", "experiment": "Test of inhibitory effect of compounds on platelet aggregation in rats (ex vivo, ADP-induced, after intragastric administration)", "design": "species or system SD rats", "conditions": "rats; for ED50: Rattus norvegicus, inhibition of ADP-induced platelet aggregation, oral administration, read-out: ED50; for Inhibition rate (%): platelet aggregation, control = 100%; for Aggregation rate (%): 2 h after administration, ADP 20 uM", "description": "Test of Inhibitory Effect of Compounds on Platelet Aggregation in Rats Healthy male SD rats were selected and randomly divided into solvent control group, positive drug control group and test compound group. Intragastric administration was carried out, with the administration volume being 10 ml/kg˜bw. […] The platelet count was adjusted to 5×10^8 cells/ml with PPP."}, "[2]": {"test_system": "arteriovenous bypass thrombosis in rats", "experiment": "Test of effect of compounds on arteriovenous bypass thrombosis in rats", "assay_type": "in vivo, SD rats", "conditions": "rats; for ED50: Rattus norvegicus, po, dry weight of thrombus from arteriovenous bypass, intragastric, read-out: ED50; for Inhibition rate (%): dry weight of thrombus", "description": "Test of Effect of Compounds on Arteriovenous Bypass Thrombosis in Rats\nMale SD rats were randomly divided into solvent control group, positive drug control group and test compound group. The solvent control group was administered a corresponding volume of the solvent. […] Rats were anesthetized with 4% chloral hydrate (0.32 g/kg), and fixed on the operating table at the supine position. The right common carotid artery and the left external jugular vein were separated, and was each inserted with a Teflon tube filled with normal saline solution containing heparin (50 U/mL), which were connected through another Teflon tube. A 6 cm long cotton thread was placed at the joints of the two tubes. After 2.5 h of administration, the arteriovenous loop was opened in each group and circulated for 15 min. The blood flow was interrupted, and the cotton thread wrapped with the thrombus was quickly removed and weighed. The weight of the cotton thread was subtracted to obtain the wet weight of the thrombus, and then it was baked in the oven to constant weight and weighed. The weight of the cotton thread was subtracted to obtain the dry weight of the thrombus."}, "[3]": {"conditions": "for Concentration of incubated compound in human plasma / Incubated compound in human plasma, %: 1 μM", "description": "Plasma samples (double sample) containing 1 μM of the compounds of the present invention, clopidogrel hydrogen sulfate (LBGL), 2-oxo product (2-Oxo) were prepared from human blank plasma, and incubated at 37° C. 50 μL of the above incubated plasma samples were taken at different time points, and 100 μL of precipitant (acetonitrile:methanol=7:3) and 50 μL of internal standard were added. The mixture was vortexed for 1 min and centrifuged for 10 min. 100 μL of the supernatant was taken into an inner inserted tube, centrifuged for 5 min, and injected for LC-MS/MS analysis.\nPreparation of blank control sample (PPT-0): 100 μL of frozen human blank plasma was taken, to which 195 μL of acetonitrile and 100 μL of internal standard were added, followed by 5 μL of the compound of the present invention, clopidogrel or 2-oxo product (20 μM). The mixture was vortexed for 1 min and centrifuged for 10 min. 100 μL of the supernatant was taken into an inner inserted tube, centrifuged for 5 min, and injected for LC-MS/MS analysis."}, "[4]": {"test_system": "bleeding time of amputated tail in rats", "experiment": "Test of hemorrhagic side effects: bleeding time of amputated tail in rats", "assay_type": "in vivo, SD rats", "conditions": "intragastric, tail cut 1 h after administration, linear equation fitted", "description": "Test of Hemorrhagic Side Effects:\n1 h after administration, the rats were anesthetized by intraperitoneal injection of 20% urethane (1 g/kg), and the tail was cut off 5 mm from the tip of the tail, which was then placed in a test tube containing 5 ml normal saline at 37° C. The time from tail cut to cease of bleeding was recorded as the bleeding time. The increasing rate of bleeding time in each dose group was calculated, with the bleeding time of the rats in the control group being 100%."}}, "note": "Where two headings read alike, the source gives them in different places.", "data": [{"smiles": "COC(=O)[C@H](c1ccccc1Cl)N1CCc2sccc2C1", "note": "[Clopidogrel, reference compound]", "values": [{"measurement": "ED50", "setting": "[1]", "result": 4.13, "unit": "mg/kg"}, {"measurement": "Inhibition rate (%)", "setting": "[1]; intragastric 2.5 mg/kg", "result": 26.5, "unit": "%"}, {"measurement": "Inhibition rate (%)", "setting": "[1]; intragastric 5 mg/kg", "result": 59.7, "unit": "%"}, {"measurement": "Inhibition rate (%)", "setting": "[1]; intragastric 10 mg/kg", "result": 90.5, "unit": "%"}, {"measurement": "Aggregation rate (%)", "setting": "[1]; intragastric 2.5 mg/kg", "result": "44.1 ± 13.5", "unit": "%"}, {"measurement": "Aggregation rate (%)", "setting": "[1]; intragastric 5 mg/kg", "result": "24.2 ± 10.6", "unit": "%"}, {"measurement": "Aggregation rate (%)", "setting": "[1]; intragastric 10 mg/kg", "result": "5.7 ± 7.5", "unit": "%"}, {"measurement": "ED50", "setting": "[2]", "result": 11.8, "unit": "mg/kg"}, {"measurement": "Inhibition rate (%)", "setting": "[2]; intragastric 3 mg/kg", "result": 24.2, "unit": "%"}, {"measurement": "Inhibition rate (%)", "setting": "[2]; intragastric 10 mg/kg", "result": 41.5, "unit": "%"}, {"measurement": "Inhibition rate (%)", "setting": "[2]; intragastric 30 mg/kg", "result": 72.6, "unit": "%"}, {"measurement": "Concentration of incubated compound in human plasma", "setting": "[3]; 0 min", "result": 965, "unit": "nM"}, {"measurement": "Incubated compound in human plasma, %", "setting": "[3]; 0 min", "result": 98.1, "unit": "%"}, {"measurement": "Concentration of incubated compound in human plasma", "setting": "[3]; 5 min", "result": 1045, "unit": "nM"}, {"measurement": "Incubated compound in human plasma, %", "setting": "[3]; 5 min", "result": 106, "unit": "%"}, {"measurement": "Concentration of incubated compound in human plasma", "setting": "[3]; 10 min", "result": 1000, "unit": "nM"}, {"measurement": "Incubated compound in human plasma, %", "setting": "[3]; 10 min", "result": 102, "unit": "%"}, {"measurement": "Concentration of incubated compound in human plasma", "setting": "[3]; 20 min", "result": 987, "unit": "nM"}, {"measurement": "Incubated compound in human plasma, %", "setting": "[3]; 20 min", "result": 100, "unit": "%"}, {"measurement": "Concentration of incubated compound in human plasma", "setting": "[3]; 30 min", "result": 1025, "unit": "nM"}, {"measurement": "Incubated compound in human plasma, %", "setting": "[3]; 30 min", "result": 104, "unit": "%"}, {"measurement": "Concentration of incubated compound in human plasma", "setting": "[3]; 45 min", "result": 995, "unit": "nM"}, {"measurement": "Incubated compound in human plasma, %", "setting": "[3]; 45 min", "result": 101, "unit": "%"}, {"measurement": "Concentration of incubated compound in human plasma", "setting": "[3]; 60 min", "result": 981, "unit": "nM"}, {"measurement": "Incubated compound in human plasma, %", "setting": "[3]; 60 min", "result": 100, "unit": "%"}, {"measurement": "Concentration of incubated compound in human plasma", "setting": "[3]; 90 min", "result": 924, "unit": "nM"}, {"measurement": "Incubated compound in human plasma, %", "setting": "[3]; 90 min", "result": 94.0, "unit": "%"}, {"measurement": "Concentration of incubated compound in human plasma", "setting": "[3]; 120 min", "result": 944, "unit": "nM"}, {"measurement": "Incubated compound in human plasma, %", "setting": "[3]; 120 min", "result": 96.0, "unit": "%"}, {"measurement": "Stability in human plasma", "setting": "[3]; plasma, 2 h", "result": "substantially stable"}]}, {"smiles": "CC(=O)Oc1cc2c(s1)CCN(C(C(=O)C1CC1)c1ccccc1F)C2", "note": "(stereo not shown) [Prasugrel, reference compound]", "values": [{"measurement": "ED50", "setting": "[1]", "result": 0.612, "unit": "mg/kg"}, {"measurement": "Inhibition rate (%)", "setting": "[1]; intragastric 0.25 mg/kg", "result": 13.3, "unit": "%"}, {"measurement": "Inhibition rate (%)", "setting": "[1]; intragastric 0.5 mg/kg", "result": 37.8, "unit": "%"}, {"measurement": "Inhibition rate (%)", "setting": "[1]; intragastric 1 mg/kg", "result": 75.0, "unit": "%"}, {"measurement": "Aggregation rate (%)", "setting": "[1]; intragastric 0.25 mg/kg", "result": "52.1 ± 6.6", "unit": "%"}, {"measurement": "Aggregation rate (%)", "setting": "[1]; intragastric 0.5 mg/kg", "result": "37.4 ± 12.3", "unit": "%"}, {"measurement": "Aggregation rate (%)", "setting": "[1]; intragastric 1 mg/kg", "result": "15.0 ± 10.2", "unit": "%"}, {"measurement": "ED50", "setting": "[2]", "result": 1.57, "unit": "mg/kg"}, {"measurement": "Inhibition rate (%)", "setting": "[2]; intragastric 0.1 mg/kg", "result": 6.0, "unit": "%"}, {"measurement": "Inhibition rate (%)", "setting": "[2]; intragastric 0.3 mg/kg", "result": 9.0, "unit": "%"}, {"measurement": "Inhibition rate (%)", "setting": "[2]; intragastric 1 mg/kg", "result": 35.7, "unit": "%"}, {"measurement": "Inhibition rate (%)", "setting": "[2]; intragastric 3 mg/kg", "result": 70.2, "unit": "%"}, {"measurement": "ED200 (dose that doubled the bleeding time)", "setting": "[4]", "result": 0.513, "unit": "mg/kg"}]}]}
